The supplement of paper PMC10307832

Assays:
Experiment in all cases: relative viability (nuclei count vs DMSO), 5 days (fraction); higher = more cells survive
Olaparib + Trametinib = compound: O=C(c1cc(Cc2n[nH]c(=O)c3ccccc23)ccc1F)N1CCN(C(=O)C2CC2)CC1 [Olaparib] + CC(=O)Nc1cccc(-n2c(=O)n(C3CC3)c(=O)c3c(Nc4ccc(I)cc4F)n(C)c(=O)c(C)c32)c1 [Trametinib] (partner 0.02 µM)
In short: (§1)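 Lung cancer cell lines in 1536-well plates got either a single drug or a fixed anchor-drug dose together with five library-drug doses (not always all listed) in √10 steps, by pin tool, on the day after seeding. Nuclei were counted after 5 days, and relative viability is the treated-to-vehicle ratio of nuclei counts. Values are medians of duplicate plates.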

Crizotinib + AZD7762 = compound: C[C@@H](Oc1cc(-c2cnn(C3CCNCC3)c2)cnc1N)c1c(Cl)ccc(F)c1Cl [Crizotinib] + NC(=O)Nc1cc(-c2cccc(F)c2)sc1C(=O)N[C@H]1CCCNC1 [AZD7762] (partner 0.2 µM)
In short: as §1

Olaparib + Luminespib = compound: O=C(c1cc(Cc2n[nH]c(=O)c3ccccc23)ccc1F)N1CCN(C(=O)C2CC2)CC1 [Olaparib] + CCNC(=O)c1noc(-c2cc(C(C)C)c(O)cc2O)c1-c1ccc(CN2CCOCC2)cc1 [Luminespib] (partner 0.01 µM)
In short: as §1

Crizotinib + Alpelisib = compound: C[C@@H](Oc1cc(-c2cnn(C3CCNCC3)c2)cnc1N)c1c(Cl)ccc(F)c1Cl [Crizotinib] + Cc1nc(NC(=O)N2CCC[C@H]2C(N)=O)sc1-c1ccnc(C(C)(C)C(F)(F)F)c1 [Alpelisib] (partner 2 µM)
In short: as §1

Cell Line	relative viability (Olaparib + Trametinib; first compound 0.08 µM)	relative viability (Olaparib + Trametinib; first compound 2.53 µM)	relative viability (Olaparib + Trametinib; first compound 8 µM)	relative viability (Crizotinib + AZD7762; first compound 0.01 µM)	relative viability (Crizotinib + AZD7762; first compound 0.1 µM)	relative viability (Crizotinib + AZD7762; first compound 1 µM)	relative viability (Olaparib + Luminespib; first compound 0.08 µM)	relative viability (Olaparib + Luminespib; first compound 0.253 µM)	relative viability (Olaparib + Luminespib; first compound 2.53 µM)	relative viability (Olaparib + Luminespib; first compound 8 µM)	relative viability (Crizotinib + Alpelisib; first compound 0.01 µM)	relative viability (Crizotinib + Alpelisib; first compound 0.03162 µM)	relative viability (Crizotinib + Alpelisib; first compound 0.1 µM)	relative viability (Crizotinib + Alpelisib; first compound 0.3162 µM)	relative viability (Crizotinib + Alpelisib; first compound 1 µM)	relative viability (Olaparib + Trametinib; first compound 0.253 µM)	relative viability (Crizotinib + AZD7762; first compound 0.03162 µM)	relative viability (Crizotinib + AZD7762; first compound 0.3162 µM)
PC-3 [JPC-3]	0.777	0.712	0.744	0.687	0.907	0.772	0.832	0.749	0.587	0.592	0.959	1.04	1.05	0.998	1.07	–	–	–
PC-14	0.937	0.434	0.456	0.342	0.401	0.382	0.199	–	0.134	0.156	0.914	0.921	0.931	0.845	0.911	0.646	0.392	0.355
RERF-LC-KJ	0.98	0.949	0.878	1.02	0.956	0.994	1.22	1.08	1.23	1	0.702	0.847	0.82	0.816	–	0.825	0.956	0.946
